Measurements from patent publication US8470844B2, “Imidazoacridinone derivative compounds and methods for their use” (Technion Research & Development Foundation Limited, priority 2008, dated 2013).
Substitutions are numbered along the chain they refer to. Values belong to the compound of their own block, whether it stands above or below them.

Legend:
A549/K1.5 cells = assay: MTT cytotoxicity assay, ABCG2-overexpressing A549/K1.5 cells; type: cell-based, Human
Method: (§1) Tissue culture: Human non-small cell lung cancer A549 cells and T-cell leukemia CCRF-CEM cells were grown under monolayer conditions or up to a maximal density of 10^6 cells/ml (for CCRF-CEM cells) in RPMI-1640 medium (GIBCO) supplemented with 10% fetal calf serum, 2 mM glutamine, 100 μg/ml penicillin and 100 μg/ml streptomycin (Biological Industries, Beth-Haemek, Israel) in a humid atmosphere of 5% CO2. Drug resistant A549/K1.5 cells with ABCG2 overexpression were maintained under a continuous drug selection with 1.5 μM C-1305. Bram, E. E., et al., (2007) Biochem Pharmacol 74(1), 41-53.
(§2) Cytotoxicity and growth inhibition assays: The cytotoxic activity of the various IA antitumor agents was determined using the MTT assay. Poindessous, V., et al., (2003) Clin Cancer Res 9(7), 2817-2825.
(§3) Exponentially growing cells were seeded at 5×10^3 cells/well in 24-well plates (2 ml medium/well). Following an overnight incubation, cells were exposed to different drug concentrations for 96 hours. Cellular viability was determined by adding the tetrazolium salt MTT for 4 h at 37° C., followed by solubilization of the intracellular precipitated formazan in 1 ml DMSO and absorbance was determined by a microplate reader (ASYS Hitech GmbH, Austria). Drug concentrations required to inhibit cell growth by 50% (IC50) compared with untreated controls were determined from the curves of survival versus drug concentrations using the SlideWrite software (Advanced Graphics Software, Inc., Encinitas, Calif.). Resistance folds (RF) were calculated by dividing the IC50 value of the resistant cells by that of the parental cell line. Values presented are means of at least three independent experiments, each performed in duplicates.
Quantitative evaluation of ABCG2 interaction with various IA derivatives: The extent of ABCG2-mediated resistance was expressed using the Resistance Fold (RF) parameter representing the ratio between the IC50 values of the resistant cells and parental cells. Likewise, ABCG2-dependent differential accumulation of IAs in ABCG2-overexpressing A549/K1.5 cells was compared using the ratio of IA accumulation in the presence or absence of the potent ABCG2 inhibitor FTC. This was termed the FTC-dependent Accumulation Fold (AF) and was determined for each IA at a constant IA concentration of 10 μM.

ABCG2 (A549/K1.5 cells) = target: T1, ABCG2 (A549/K1.5 cells) (Homo sapiens, UniProt Q9UNQ0); assay: Fluorescence microscopy of nuclear accumulation of IAs in A549/K1.5 cells; type: cell-based; details: 10 μM IA, 1 hr
T1 construct: Drug resistant A549/K1.5 cells with ABCG2 overexpression were maintained under a continuous drug selection with 1.5 μM C-1305; endogenous in cells; host or cells: A549/K1.5 (C-1305-selected subline of human non-small cell lung cancer A549)
T1 sequence (Q9UNQ0 1-655): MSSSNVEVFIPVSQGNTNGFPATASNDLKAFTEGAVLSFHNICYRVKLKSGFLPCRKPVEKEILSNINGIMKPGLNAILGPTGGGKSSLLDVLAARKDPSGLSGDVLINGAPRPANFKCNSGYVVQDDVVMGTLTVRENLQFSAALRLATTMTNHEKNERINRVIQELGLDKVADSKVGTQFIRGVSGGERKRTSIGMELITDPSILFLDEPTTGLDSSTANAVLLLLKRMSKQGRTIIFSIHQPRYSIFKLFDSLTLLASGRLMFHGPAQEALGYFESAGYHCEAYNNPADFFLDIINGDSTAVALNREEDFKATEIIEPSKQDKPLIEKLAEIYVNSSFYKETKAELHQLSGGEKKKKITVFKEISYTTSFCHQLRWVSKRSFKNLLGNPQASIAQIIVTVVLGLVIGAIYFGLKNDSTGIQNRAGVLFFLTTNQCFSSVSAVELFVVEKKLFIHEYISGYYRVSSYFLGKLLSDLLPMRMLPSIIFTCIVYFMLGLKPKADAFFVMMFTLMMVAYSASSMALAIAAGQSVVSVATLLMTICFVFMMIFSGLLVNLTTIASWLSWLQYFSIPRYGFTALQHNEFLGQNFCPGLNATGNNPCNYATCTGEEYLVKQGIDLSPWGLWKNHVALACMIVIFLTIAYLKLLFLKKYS
Method: In immunofluorescence microscopy of plasma membrane targeting of ABCG2 and nuclear accumulation of IAs, cells (1×10^4/well) were seeded in 24-well plates (1 ml medium/well) and incubated for 2 days, following which some wells were supplemented with 10 μM IA-containing medium±5 μM FTC and incubated for 1 h at 37° C. Cells were then washed twice with ice-cold PBS containing 0.1% BSA and blocked for 10 min at 4° C. with PBS containing 5% BSA. Cells were then washed once with ice-cold PBS containing 0.1% BSA and incubated for 30 min at 4° C. with a Phycoerythrin-conjugated, affinity-purified 5D3 mouse anti-human ABCG2 monoclonal antibody (1:100; eBioscience). Unspecific fluorescence was determined using cells that were incubated only with a secondary Phycoerythrin (PE)-conjugated goat anti-mouse IgG (1:200; Jackson Immunoresearch Labs, West Grove, Pa.). Cells were then washed twice and subjected to fluorescence microscopy using a DMIRE2 fluorescence microscope equipped with a DC300FX camera (Leica Microsystems, Wetzlar, Germany).
In order to exclude the possibility that differential subcellular accumulation of IA derivatives is the basis of the observed difference in cytotoxicity and cellular fluorescence, A549/K1.5 cells were incubated with 10 μM of selected IA derivatives from both group A and B in the presence or absence of FTC and subjected to fluorescence microscopy.

[1] = test system: untransfected HEK293 cells; assay: Flow cytometric accumulation in untransfected HEK293 cells; type: cell-based, Human; details: ±5 μM FTC
Method: (§4) For cytotoxicity and accumulation experiments, cells were grown in drug-free medium for at least one week prior to the experiments. Human embryonic kidney cells (HEK293) and their stable transfectants overexpressing the R482, G482 and T482 ABCG2 were grown in the above RPMI-1640 medium supplemented with 2 mg/ml G-418. Bram, E. E., et al., (2006) Cancer Chemother Pharmacol 58(6), 826-834.
(§5) IA derivative and tetramethylrosamine (TMR) accumulation in parental HEK293 and their HEK293/ABCG2 R/G/T482 transfectants were carried out as described herein with the a slight amendment of using a single IA concentration of 1 μM ±FTC (5 μM) for the selected as well as 0.1 μM for TMR accumulation. Robey, R. W., et al., (2003) Br J Cancer 89(10), 1971-1978. Cellular fluorescence was determined using a FACSCalibur (BD Bioscience, San Jose, Calif. USA) flow cytometer. FL1-H excitation of IAs was at 488 nm and emission was collected at 525 nm, whereas FL2-H excitation of TMR was at […] and emission was collected at 574 nm. Flow cytometric results are presented as means±SD of 3 independent experiments.
(§6) Bram, E. E., et al., (2006) Cancer Chemother Pharmacol 58(6), 826-834.

A549 cells = assay: MTT cytotoxicity assay, parental A549 cells; type: cell-based, Human; details: 96 hours exposure, mean of at least three experiments
Method: as §1, §2, §3

mutant T482 ABCG2 = target: T2, mutant T482 ABCG2 (Homo sapiens, UniProt Q9UNQ0, R482T); assay: Flow cytometric accumulation in HEK293 transfectants, mutant T482 ABCG2; details: HEK293 mutant T482 ABCG2, 0.1 μM TMR, ±5 μM FTC
T2 sequence (Q9UNQ0 1-655 R482T): T1 sequence (Q9UNQ0 1-655) with R482T
Method: as §4, §5, §6

mutant G482 ABCG2 = target: T3, mutant G482 ABCG2 (Homo sapiens, UniProt Q9UNQ0, R482G); assay: Flow cytometric accumulation in HEK293 transfectants, mutant G482 ABCG2; details: HEK293 mutant G482 ABCG2, 0.1 μM TMR, ±5 μM FTC
T3 sequence (Q9UNQ0 1-655 R482G): T1 sequence (Q9UNQ0 1-655) with R482G
Method: as §4, §5, §6

wild type R482 ABCG2 = target: T4, wild type R482 ABCG2 (Homo sapiens, UniProt Q9UNQ0); assay: Flow cytometric accumulation in HEK293 transfectants, wild type R482 ABCG2; details: HEK293 wild type R482 ABCG2, 0.1 μM TMR, ±5 μM FTC
T4 sequence (Q9UNQ0 1-655): T1 sequence (Q9UNQ0 1-655)
Method: as §4, §5, §6

intracellular accumulation (fluorescence microscopy) (ABCG2 (A549/K1.5 cells); absence of FTC): no apparent intracellular accumulation
SMILES: CCN(CC)CCNc1ccc2nc(C)n3c4ccc(O)cc4c(=O)c1c23.Cl [C-1310]
IC50 (A549/K1.5 cells; ABCG2-overexpressing A549/K1.5 cells, 96 hours exposure, MTT): 1.22 ± 0.07 µM
RF (resistance fold) (A549/K1.5 cells; IC50 of A549/K1.5 cells divided by IC50 of parental A549 cells): 20.30
resistance of A549/K1.5 cells (in words) (A549/K1.5 cells; versus parental A549 cells): prominent resistance
nuclear accumulation (fluorescence microscopy) (ABCG2 (A549/K1.5 cells); presence of 5 μM FTC): marked restoration of nuclear accumulation
efflux (in words) ([1]; 1 μM IA): not from untransfected HEK293 cells
IC50 (A549 cells): 0.06 ± 0.008 µM

SMILES: CN(C)c1ccc2c(-c3ccc(CCl)cc3)c3ccc(=[N+](C)C)cc-3oc2c1 [TMR, tetramethylrosamine]
AF (FTC inducible accumulation fold) (mutant T482 ABCG2): marked AF
AF (FTC inducible accumulation fold) (mutant G482 ABCG2): marked AF
AF (FTC inducible accumulation fold) ([1]; 0.1 μM TMR): 0.8 fold
AF (FTC inducible accumulation fold) (wild type R482 ABCG2): 1.4
